Results reported in patent US20110269758A1, “NAPHTHYRIDINONES AS PROTEIN KINASE INHIBITORS” (MERCK PATENT GMBH, priority 2008, published 2011).

Legend:
Aurora Kinase B = Aurora Kinase B (Homo sapiens, UniProt Q96GD4); assay: Biochemical enzyme assay for Aurora B activity (Caliper mobility shift); conditions: LC3000 or Desktop Profiler
Protocol: (§1) The Aurora assays described here were performed on two Caliper Life Sciences systems, the LC3000 and the Desktop Profiler. These provide data on enzyme activity via measurement of the relative amounts of phosphorylated or unphosphorylated fluorescently labelled substrate peptide at the end of an enzymatic reaction. These different states of peptide are resolved by applying a potential difference across the sample. The presence of a charged phosphate group on the product (as opposed to the substrate) causes a different peptide mobility between the two peptides. This is visualized by excitation of a fluorescent label on the substrate and product peptides and represented as peaks within the analysis software.
(§2) The Desktop Profiler utilizes the same prinicipal as the LC 3000 for calculating percentage conversion of a substrate to product. Caliper Life Sciences provided proprietary flash frozen pre-made 384 well plates containing selected kinases. Each column in the 384 well plate contained a particular selected kinase. A second plate, the ‘substrate plate’ contained a mix of fluorescently labeled peptide substrate and ATP. These were arranged in columns so that transfer for substrate plate to enzyme plate provided the correct enzyme with the correct substrate/ATP concentration.
(§3) Compounds were added to a thawed enzyme plate in the desired format, in single concentrations. Reactions were initiated by transfer of the substrate/ATP mix from the substrate plate. The enzyme plate was incubated for 90 mins at 25° C. The reaction was stopped by addition of 70 μl of Stop Buffer (100 mM HEPES pH 7.5, 0.015% Brij-35, 10 mM EDTA (Sigma, E7889)).
Plates were read in a manner identical to that of the LC3000, and the ratio between substrate and product peaks provided the activity of the enzyme in that well. This was best represented by a plate heat map which colors each well by percent inhibition as compared to positive and negative controls (no inhibitors and no ATP respectively).

Aurora Kinase A = target: T1, Aurora Kinase A (Homo sapiens, UniProt O14965); assay: Biochemical enzyme assay for Aurora A activity (Caliper LC3000 / Desktop Profiler mobility shift); conditions: GST-Aurora A, 15 μM ATP, 90 min at 25° C.; LC3000 or Desktop Profiler; read-out: Aurora Kinase A IC50
T1 construct: full length Aurora A (1-403 amino acids); purchased Carna Biosciences 05-101
T1 sequence (O14965 1-403): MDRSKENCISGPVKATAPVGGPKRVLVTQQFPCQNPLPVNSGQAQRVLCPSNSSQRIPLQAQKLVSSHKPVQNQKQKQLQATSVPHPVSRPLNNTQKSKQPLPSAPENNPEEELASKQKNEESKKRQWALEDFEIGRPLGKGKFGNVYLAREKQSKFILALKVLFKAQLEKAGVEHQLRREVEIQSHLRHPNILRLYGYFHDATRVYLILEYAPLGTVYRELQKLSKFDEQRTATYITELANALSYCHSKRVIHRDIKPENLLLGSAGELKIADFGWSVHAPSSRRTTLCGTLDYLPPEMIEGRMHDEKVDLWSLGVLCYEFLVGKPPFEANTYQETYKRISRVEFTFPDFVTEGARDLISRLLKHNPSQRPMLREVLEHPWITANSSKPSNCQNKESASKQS
Protocol: as §1
In order to measure inhibitor activity of Aurora A inhibitors in the Caliper Life Sciences LC3000, a TTP Mosquito liquid handling instrument was used to place 0.25 μl of an appropriate concentration of inhibitor in 100% DMSO (for a dose response curve calculation) into each well of a 384-well plate.
The reaction was incubated for 90 min at 25° C., and then stopped by the addition of 70 μl of Stop buffer (100 mM HEPES pH 7.5, 0.015% Brij-35, 10 mM EDTA (Sigma, E7889)).
The plate was read on a Caliper LC 3000 in an Off-Chip mobility shift assay format, using the following parameters for a 12-sipper chip: screening pressure −1.8 psi, upstream voltage −2700, downstream voltage −1000. These conditions cause unphosphorylated substrate and phosphorylated product peptide to resolve as separate peaks allowing direct measurement of percentage of conversion of substrate to product.
as §2, §3
Plates were read in a manner identical to that of the LC3000, and the ratio between substrate and product peaks provided the activity of the enzyme in that well.

Aurora Kinase B, sequence (Q96GD4 whole entry): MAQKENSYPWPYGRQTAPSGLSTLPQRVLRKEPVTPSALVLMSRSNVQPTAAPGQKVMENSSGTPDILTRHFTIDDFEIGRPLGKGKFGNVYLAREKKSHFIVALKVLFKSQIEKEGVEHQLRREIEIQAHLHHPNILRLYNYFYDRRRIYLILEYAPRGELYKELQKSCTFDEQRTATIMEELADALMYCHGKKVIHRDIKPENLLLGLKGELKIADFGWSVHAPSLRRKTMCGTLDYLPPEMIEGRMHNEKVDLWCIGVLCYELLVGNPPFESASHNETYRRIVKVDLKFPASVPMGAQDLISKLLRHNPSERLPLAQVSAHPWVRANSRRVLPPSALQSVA

SMILES | IC50 (Aurora Kinase B) | IC50 (Aurora Kinase A)
O=C(Nc1ccc(Nc2ccnc3[nH]c(=O)c(F)cc23)cc1)c1ccc(F)cc1C(F)(F)F [Compound 96, 4-Fluoro-N-[4-(6-fluoro-7-oxo-7,8-dihydro-[1,8]naphthyridin-4-ylamino)-phenyl]-2 trifluoromethyl-benzamide] | 1 to 300 nM | 1 to 300 nM
CC(C)(C)C(=O)Nc1nccc(Cl)c1C(=O)c1ccccc1 [Compound 73, N-(3-Benzoyl-4-chloropyridin-2-yl)-2,2-dimethylpropanamide] |  | 1 to 300 nM
Nc1ccc(NC(=O)c2cc(F)cc(F)c2)cc1 [Compound 11, N-(4-Aminophenyl)-3,5-difluoro-benzamide] |  | 1 to 300 nM
Nc1ccc(NC(=O)c2ccc(OC(F)(F)F)cc2)cc1 [Compound 21, N-(4-Aminophenyl)-4-trifluoromethoxy-benzamide] |  | 1 to 300 nM
CC(C)(C)OC(=O)CC(O)c1c(Cl)ccnc1NC(=O)C(C)(C)C (stereo not shown) [Compound 30, Tert-butyl 3-{4-chloro-2-[(2,2-dimethylpropanoyl)amino]pyridin-3-yl}-3-hydroxypropanoate] |  | 1 to 300 nM
Nc1ccc(NC(=O)c2ccccc2C(F)(F)F)cc1 [Compound 5, N-(4-Aminophenyl)-2-trifluoromethyl-benzamide] | 1 to 300 nM | 1 to 300 nM
CC(C)(C)OC(=O)c1c(-c2ccccc2)c2c(Cl)ccnc2[nH]c1=O [Compound 75, 5-Chloro-2-oxo-4-phenyl-1,2-dihydro-1,8-naphthyridi-3-carboxylic acid tert-butyl ester] |  | 1 to 300 nM
O=c1ccc2c(Nc3c(Cl)ccc4c3OCO4)ccnc2[nH]1 [Compound 31a, 5-(5-chlorobenzo[d][1,3]dioxo-4-ylamino)-1,8-naphthyridin-2(1H)-one] |  | 1 to 300 nM
Nc1ccc(NC(=O)c2ccc(F)cc2C(F)(F)F)cc1 [Compound 8, N-(4-Aminophenyl)-4-fluoro-2-trifluoromethyl-benzamide] |  | 1 to 300 nM
O=C(Nc1ccc(Nc2ccnc3[nH]c(=O)c([N+](=O)[O-])cc23)cc1)c1ccc(F)cc1C(F)(F)F [Compound 88, 4-Fluoro-2-trifluoromethyl-N-(4-(6-nitro-7-oxo-7,8-dihydro-1,8-naphthyridin-4-yl-amino)phenyl)benzamide] |  | 1 to 300 nM
Nc1ccc(NC(=O)c2ccc(F)cc2F)cc1 [Compound 12, N-(4-Aminophenyl)-2,4-difluoro-benzamide] |  | 1 to 300 nM
Nc1ccc(NC(=O)c2ccc(C(F)(F)F)cc2F)cc1 [Compound 18, N-(4-Aminophenyl)-2-fluoro-4-trifluoromethyl-benzamide] |  | 1 to 300 nM
Cc1ccccc1C(=O)Nc1ccc(N)cc1 [Compound 22, N-(4-Aminophenyl)-2-methyl-benzamide] |  | 601 to 1000 nM
Cc1cccc(C(=O)Nc2ccc(N)cc2)c1 [Compound 23, N-(4-Aminophenyl)-3-methyl-benzamide] |  | > 1000 nM
Cc1ccc(C(=O)Nc2ccc(N)cc2)cc1 [Compound 17, N-(4-Aminophenyl)-4-methyl-benzamide] |  | 1 to 300 nM
O=C(Nc1ccc(Nc2ccnc3[nH]c(=O)ccc23)cc1)C1CCCCC1 [Compound 45, N-(4-(7-oxo-7,8-dihydro-1,8-naphthyridin-4-yl-amino)phenyl)cyclohexanecarboxamide] |  | 1 to 300 nM

Continued, values first:

IC50 (Aurora Kinase B) | IC50 (Aurora Kinase A) | SMILES
1 to 300 nM | 1 to 300 nM | Nc1cc2c(Nc3ccc(NC(=O)c4ccc(F)cc4C(F)(F)F)cc3)ccnc2[nH]c1=O [Compound 90, 4-Fluoro-2-trifluoromethyl-N-(4-(6-amino-7-oxo-7,8-dihydro-1,8-naphthyridin-4-yl-amino)phenyl)benzamide]
1 to 300 nM | 1 to 300 nM | O=C(Nc1ccc(Nc2ccnc3[nH]c(=O)cc(O)c23)cc1)c1ccccc1 [Compound 92, N-[4-(5-Hydroxy-7-oxo-7,8-dihydro-[1,8]naphthyridin-4-ylamino)-phenyl]-benzamide]
> 1000 nM | > 1000 nM | O=C(Nc1ccc(Nc2ccnc3[nH]c(=O)ccc23)cc1)c1ccc(C(F)(F)F)cc1 [Compound 38, 4-Trifluoromethyl-N-(4-(7-oxo-7,8-dihydro-1,8-naphthyridin-4-yl-amino)phenyl)benzamide]
> 1000 nM | > 1000 nM | O=C(Nc1ccc(Nc2ccnc3[nH]c(=O)ccc23)cc1)c1cccc(C(F)(F)F)c1F [Compound 39, 2-Fluoro-3-Trifluoromethyl-N-(4-(7-oxo-7,8-dihydro-1,8-naphthyridin-4-yl-amino)phenyl)benzamide]
1 to 300 nM | 1 to 300 nM | Cc1cc(=O)[nH]c2nccc(Nc3ccc(NC(=O)c4ccccc4)cc3)c12 [Compound 94, N-[4-(5-Methyl-7-oxo-7,8-dihydro-[1,8]naphthyridin-4-ylamino)-phenyl]-benzamide]
 | 1 to 300 nM | O=C(Nc1ccc(Nc2ccnc3nc(Cl)ccc23)cc1)c1ccccc1 [Compound 63, N-(4-(7-Chloro-1,8-naphthyridin-4-yl-amino)phenyl)benzamide]
1 to 300 nM | 1 to 300 nM | Nc1cc2c(Nc3ccc(NC(=O)c4ccc(F)c(F)c4)cc3)ccnc2[nH]c1=O [Compound 89, 3,4-Difluoro-N-(4-(6-amino-7-oxo-7,8-dihydro-1,8-naphthyridin-4-yl-amino)phenyl)benzamide]
 | 1 to 300 nM | O=C(Nc1ccccc1Nc1ccnc2[nH]c(=O)ccc12)c1ccccc1 [Compound 47, N-(2-(7-oxo-7,8-dihydro-1,8-naphthyridin-4-ylamino)phenyl)benzamide]
601 to 1000 nM | > 1000 nM | CN(C)CCNC(=O)c1cc2c(Nc3ccc(NC(=O)c4ccccc4)cc3)ncnc2[nH]c1=O [Compound 86, 4-(4-Benzoylamino-phenylamino)-7-oxo-7,8-dihydro-pyrido[2,3-d]pyrimidine-6-carboxylic acid 2-(dimethylamino-ethyl)-amide]
 | > 1000 nM | O=C(Nc1ccc(Nc2ccnc3[nH]c(=O)c(C(=O)NC[C@H](O)CO)c(-c4ccccc4)c23)cc1)c1ccc(F)c(F)c1 [Compound 79, 5-[(3,4-Difluoro-benzoylamino)-phenylamino]-2-oxo-4-phenyl-1,2-dihydro-1,8-naphthyridine-3-carboxylic acid ((S)2,3-dihydroxypropyl)-amide]
 | > 1000 nM | CN(C)CCCOc1ccc2c(Nc3ccc(C(=O)Nc4ccccc4)cc3)ccnc2n1 [Compound 69, N-(4-(7-(4-Dimethylamino-propoxy)-1,8-naphthyridin-4-yl-amino)phenyl)benzamide]
 | 1 to 300 nM | O=C(Nc1ccc(Nc2ccnc3[nH]c(=O)ccc23)cc1)c1ccc(F)cc1 [Compound 36, 4-Fluoro-N-(4-(7-oxo-7,8-dihydro-1,8-naphthyridin-4-yl-amino)phenyl)benzamide]
 | 1 to 300 nM | O=C(Nc1ccc(Nc2ccnc3[nH]c(=O)c(C(=O)NCCO)c(-c4ccccc4)c23)cc1)c1ccc(F)c(F)c1 [Compound 78, 5-[(3,4-Difluoro-benzoylamino)-phenylamino]-2-oxo-4-phenyl-1,2-dihydro-1,8-naphthyridine-3-carboxylic acid (2-hydroxy-ethyl)-amide]
 | 1 to 300 nM | O=C(Nc1ccc(Oc2ccnc3[nH]c(=O)ccc23)cc1)c1ccccc1 [Compound 46, N-(4-(7-oxo-7,8-dihydro-1,8-naphthyridin-4-yloxy)phenyl)benzamide]
 | 1 to 300 nM | O=C(Nc1ccc(Nc2ccnc3[nH]c(=O)ccc23)cc1)c1ccc(F)c(F)c1 [Compound 42, 3,4-Difluoro-N-(4-(7-oxo-7,8-dihydro-1,8-naphthyridin-4-yl-amino)phenyl)benzamide]
